#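 48-hour exposure; five concentrations; linearly interpolated endpoints. The concentration for full growth arrest is given as TGI.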
# System: 786-0 renal
# Assay: NCI anticancer screen, dose series, 48 h
row,Compound,TGI [µM]
1,CCCCCCCCCCCCC(=O)CCCCC(=O)O,84.7
2,COc1cc2c(c(OC)c1OC)CCNC2C1=C(O)COC1=O (stereo not given),> 100
3,CN(C)CCNC(=O)c1cccc2nc3c(ccc4ccccc43)nc12,17.6
4,NCCCNC(=O)c1csc(NC(=O)c2csc(NC(=O)CCCN)n2)n1,> 100

# System: A498 renal
# Assay: NCI anticancer screen, dose series, 48 h
row,Compound,TGI [µM]
1,CCCCCCCCCCCCC(=O)CCCCC(=O)O,36.3
2,COc1cc2c(c(OC)c1OC)CCNC2C1=C(O)COC1=O (stereo not given),> 100
3,CN(C)CCNC(=O)c1cccc2nc3c(ccc4ccccc43)nc12,15.5
4,NCCCNC(=O)c1csc(NC(=O)c2csc(NC(=O)CCCN)n2)n1,> 100

# System: A549 NSCLC
# Assay: NCI anticancer screen, dose series, 48 h
row,Compound,TGI [µM]
1,CCCCCCCCCCCCC(=O)CCCCC(=O)O,44.6
2,COc1cc2c(c(OC)c1OC)CCNC2C1=C(O)COC1=O (stereo not given),> 100
3,CN(C)CCNC(=O)c1cccc2nc3c(ccc4ccccc43)nc12,12.2
4,NCCCNC(=O)c1csc(NC(=O)c2csc(NC(=O)CCCN)n2)n1,> 100

# System: ACHN renal
# Assay: NCI anticancer screen, dose series, 48 h
row,Compound,TGI [µM]
1,CCCCCCCCCCCCC(=O)CCCCC(=O)O,73.7
2,COc1cc2c(c(OC)c1OC)CCNC2C1=C(O)COC1=O (stereo not given),> 100
3,CN(C)CCNC(=O)c1cccc2nc3c(ccc4ccccc43)nc12,4.34
4,NCCCNC(=O)c1csc(NC(=O)c2csc(NC(=O)CCCN)n2)n1,> 100

# System: BT-549 breast
# Assay: NCI anticancer screen, dose series, 48 h
row,Compound,TGI [µM]
1,CN(C)CCNC(=O)c1cccc2nc3c(ccc4ccccc43)nc12,22.8

# System: CAKI-1 renal
# Assay: NCI anticancer screen, dose series, 48 h
row,Compound,TGI [µM]
1,CCCCCCCCCCCCC(=O)CCCCC(=O)O,> 100
2,COc1cc2c(c(OC)c1OC)CCNC2C1=C(O)COC1=O (stereo not given),> 100
3,CN(C)CCNC(=O)c1cccc2nc3c(ccc4ccccc43)nc12,12.9
4,NCCCNC(=O)c1csc(NC(=O)c2csc(NC(=O)CCCN)n2)n1,> 100

# System: CCRF-CEM leukemia
# Assay: NCI anticancer screen, dose series, 48 h
row,Compound,TGI [µM]
1,CCCCCCCCCCCCC(=O)CCCCC(=O)O,> 100
2,COc1cc2c(c(OC)c1OC)CCNC2C1=C(O)COC1=O (stereo not given),> 100
3,CN(C)CCNC(=O)c1cccc2nc3c(ccc4ccccc43)nc12,4.68
4,NCCCNC(=O)c1csc(NC(=O)c2csc(NC(=O)CCCN)n2)n1,> 100

# System: COLO 205 colon
# Assay: NCI anticancer screen, dose series, 48 h
row,Compound,TGI [µM]
1,CCCCCCCCCCCCC(=O)CCCCC(=O)O,32.7
2,COc1cc2c(c(OC)c1OC)CCNC2C1=C(O)COC1=O (stereo not given),> 100
3,CN(C)CCNC(=O)c1cccc2nc3c(ccc4ccccc43)nc12,11.3
4,NCCCNC(=O)c1csc(NC(=O)c2csc(NC(=O)CCCN)n2)n1,> 100

# System: DLD-1 colon
# Assay: NCI anticancer screen, dose series, 48 h
row,Compound,TGI [µM]
1,CCCCCCCCCCCCC(=O)CCCCC(=O)O,38.1
2,COc1cc2c(c(OC)c1OC)CCNC2C1=C(O)COC1=O (stereo not given),> 100
3,CN(C)CCNC(=O)c1cccc2nc3c(ccc4ccccc43)nc12,8.25
4,NCCCNC(=O)c1csc(NC(=O)c2csc(NC(=O)CCCN)n2)n1,> 100

# System: DMS 114 small cell lung
# Assay: NCI anticancer screen, dose series, 48 h
row,Compound,TGI [µM]
1,CCCCCCCCCCCCC(=O)CCCCC(=O)O,42
2,COc1cc2c(c(OC)c1OC)CCNC2C1=C(O)COC1=O (stereo not given),> 100
3,CN(C)CCNC(=O)c1cccc2nc3c(ccc4ccccc43)nc12,8.12
4,NCCCNC(=O)c1csc(NC(=O)c2csc(NC(=O)CCCN)n2)n1,> 100

# System: DMS 273 small cell lung
# Assay: NCI anticancer screen, dose series, 48 h
row,Compound,TGI [µM]
1,CCCCCCCCCCCCC(=O)CCCCC(=O)O,> 100
2,COc1cc2c(c(OC)c1OC)CCNC2C1=C(O)COC1=O (stereo not given),> 100
3,CN(C)CCNC(=O)c1cccc2nc3c(ccc4ccccc43)nc12,> 100
4,NCCCNC(=O)c1csc(NC(=O)c2csc(NC(=O)CCCN)n2)n1,> 100

# System: DU-145 prostate
# Assay: NCI anticancer screen, dose series, 48 h
row,Compound,TGI [µM]
1,CN(C)CCNC(=O)c1cccc2nc3c(ccc4ccccc43)nc12,16.4

# System: EKVX NSCLC
# Assay: NCI anticancer screen, dose series, 48 h
row,Compound,TGI [µM]
1,CCCCCCCCCCCCC(=O)CCCCC(=O)O,> 100
2,CN(C)CCNC(=O)c1cccc2nc3c(ccc4ccccc43)nc12,17.8
3,NCCCNC(=O)c1csc(NC(=O)c2csc(NC(=O)CCCN)n2)n1,> 100

# System: HCC-2998 colon
# Assay: NCI anticancer screen, dose series, 48 h
row,Compound,TGI [µM]
1,COc1cc2c(c(OC)c1OC)CCNC2C1=C(O)COC1=O (stereo not given),> 100
2,CN(C)CCNC(=O)c1cccc2nc3c(ccc4ccccc43)nc12,7.18
3,NCCCNC(=O)c1csc(NC(=O)c2csc(NC(=O)CCCN)n2)n1,> 100

# System: HCT-116 colon
# Assay: NCI anticancer screen, dose series, 48 h
row,Compound,TGI [µM]
1,CCCCCCCCCCCCC(=O)CCCCC(=O)O,54.6
2,COc1cc2c(c(OC)c1OC)CCNC2C1=C(O)COC1=O (stereo not given),> 100
3,CN(C)CCNC(=O)c1cccc2nc3c(ccc4ccccc43)nc12,5.68
4,NCCCNC(=O)c1csc(NC(=O)c2csc(NC(=O)CCCN)n2)n1,> 100

# System: HCT-15 colon
# Assay: NCI anticancer screen, dose series, 48 h
row,Compound,TGI [µM]
1,COc1cc2c(c(OC)c1OC)CCNC2C1=C(O)COC1=O (stereo not given),> 100
2,CN(C)CCNC(=O)c1cccc2nc3c(ccc4ccccc43)nc12,4.6
3,NCCCNC(=O)c1csc(NC(=O)c2csc(NC(=O)CCCN)n2)n1,> 100

# System: HL-60(TB) leukemia
# Assay: NCI anticancer screen, dose series, 48 h
row,Compound,TGI [µM]
1,CCCCCCCCCCCCC(=O)CCCCC(=O)O,33.4
2,COc1cc2c(c(OC)c1OC)CCNC2C1=C(O)COC1=O (stereo not given),> 100
3,CN(C)CCNC(=O)c1cccc2nc3c(ccc4ccccc43)nc12,3.98
4,NCCCNC(=O)c1csc(NC(=O)c2csc(NC(=O)CCCN)n2)n1,> 100

# System: HOP-18 NSCLC
# Assay: NCI anticancer screen, dose series, 48 h
row,Compound,TGI [µM]
1,CCCCCCCCCCCCC(=O)CCCCC(=O)O,59.3
2,COc1cc2c(c(OC)c1OC)CCNC2C1=C(O)COC1=O (stereo not given),> 100
3,CN(C)CCNC(=O)c1cccc2nc3c(ccc4ccccc43)nc12,29.9
4,NCCCNC(=O)c1csc(NC(=O)c2csc(NC(=O)CCCN)n2)n1,> 100

# System: HOP-62 NSCLC
# Assay: NCI anticancer screen, dose series, 48 h
row,Compound,TGI [µM]
1,CCCCCCCCCCCCC(=O)CCCCC(=O)O,41.9
2,COc1cc2c(c(OC)c1OC)CCNC2C1=C(O)COC1=O (stereo not given),> 100
3,CN(C)CCNC(=O)c1cccc2nc3c(ccc4ccccc43)nc12,7.88
4,NCCCNC(=O)c1csc(NC(=O)c2csc(NC(=O)CCCN)n2)n1,> 100

# System: HOP-92 NSCLC
# Assay: NCI anticancer screen, dose series, 48 h
row,Compound,TGI [µM]
1,CCCCCCCCCCCCC(=O)CCCCC(=O)O,41.5
2,COc1cc2c(c(OC)c1OC)CCNC2C1=C(O)COC1=O (stereo not given),> 100
3,CN(C)CCNC(=O)c1cccc2nc3c(ccc4ccccc43)nc12,17.3
4,NCCCNC(=O)c1csc(NC(=O)c2csc(NC(=O)CCCN)n2)n1,> 100

# System: HS 578T breast
# Assay: NCI anticancer screen, dose series, 48 h
row,Compound,TGI [µM]
1,CN(C)CCNC(=O)c1cccc2nc3c(ccc4ccccc43)nc12,22.8

# System: HT29 colon
# Assay: NCI anticancer screen, dose series, 48 h
row,Compound,TGI [µM]
1,CCCCCCCCCCCCC(=O)CCCCC(=O)O,30.7
2,COc1cc2c(c(OC)c1OC)CCNC2C1=C(O)COC1=O (stereo not given),> 100
3,CN(C)CCNC(=O)c1cccc2nc3c(ccc4ccccc43)nc12,4.08
4,NCCCNC(=O)c1csc(NC(=O)c2csc(NC(=O)CCCN)n2)n1,> 100

# System: IGROV1 ovarian
# Assay: NCI anticancer screen, dose series, 48 h
row,Compound,TGI [µM]
1,CCCCCCCCCCCCC(=O)CCCCC(=O)O,35.3
2,COc1cc2c(c(OC)c1OC)CCNC2C1=C(O)COC1=O (stereo not given),> 100
3,CN(C)CCNC(=O)c1cccc2nc3c(ccc4ccccc43)nc12,22.2
4,NCCCNC(=O)c1csc(NC(=O)c2csc(NC(=O)CCCN)n2)n1,> 100

# System: K-562 leukemia
# Assay: NCI anticancer screen, dose series, 48 h
row,Compound,TGI [µM]
1,CCCCCCCCCCCCC(=O)CCCCC(=O)O,39.8
2,COc1cc2c(c(OC)c1OC)CCNC2C1=C(O)COC1=O (stereo not given),> 100
3,CN(C)CCNC(=O)c1cccc2nc3c(ccc4ccccc43)nc12,4.86
4,NCCCNC(=O)c1csc(NC(=O)c2csc(NC(=O)CCCN)n2)n1,> 100

# System: KM12 colon
# Assay: NCI anticancer screen, dose series, 48 h
row,Compound,TGI [µM]
1,CCCCCCCCCCCCC(=O)CCCCC(=O)O,29.5
2,COc1cc2c(c(OC)c1OC)CCNC2C1=C(O)COC1=O (stereo not given),> 100
3,CN(C)CCNC(=O)c1cccc2nc3c(ccc4ccccc43)nc12,6.9
4,NCCCNC(=O)c1csc(NC(=O)c2csc(NC(=O)CCCN)n2)n1,> 100

# System: KM20L2 colon
# Assay: NCI anticancer screen, dose series, 48 h
row,Compound,TGI [µM]
1,COc1cc2c(c(OC)c1OC)CCNC2C1=C(O)COC1=O (stereo not given),> 100
2,CN(C)CCNC(=O)c1cccc2nc3c(ccc4ccccc43)nc12,3.15
3,NCCCNC(=O)c1csc(NC(=O)c2csc(NC(=O)CCCN)n2)n1,> 100

# System: LOX IMVI melanoma
# Assay: NCI anticancer screen, dose series, 48 h
row,Compound,TGI [µM]
1,CCCCCCCCCCCCC(=O)CCCCC(=O)O,46.6
2,COc1cc2c(c(OC)c1OC)CCNC2C1=C(O)COC1=O (stereo not given),> 100
3,CN(C)CCNC(=O)c1cccc2nc3c(ccc4ccccc43)nc12,2.44

# System: LXFL 529 NSCLC
# Assay: NCI anticancer screen, dose series, 48 h
row,Compound,TGI [µM]
1,CCCCCCCCCCCCC(=O)CCCCC(=O)O,35.3
2,COc1cc2c(c(OC)c1OC)CCNC2C1=C(O)COC1=O (stereo not given),> 100
3,CN(C)CCNC(=O)c1cccc2nc3c(ccc4ccccc43)nc12,14
4,NCCCNC(=O)c1csc(NC(=O)c2csc(NC(=O)CCCN)n2)n1,> 100

# System: M14 melanoma
# Assay: NCI anticancer screen, dose series, 48 h
row,Compound,TGI [µM]
1,CCCCCCCCCCCCC(=O)CCCCC(=O)O,33.6
2,COc1cc2c(c(OC)c1OC)CCNC2C1=C(O)COC1=O (stereo not given),> 100
3,CN(C)CCNC(=O)c1cccc2nc3c(ccc4ccccc43)nc12,11
4,NCCCNC(=O)c1csc(NC(=O)c2csc(NC(=O)CCCN)n2)n1,> 100

# System: M19-MEL melanoma
# Assay: NCI anticancer screen, dose series, 48 h
row,Compound,TGI [µM]
1,CCCCCCCCCCCCC(=O)CCCCC(=O)O,38.9
2,COc1cc2c(c(OC)c1OC)CCNC2C1=C(O)COC1=O (stereo not given),> 100
3,CN(C)CCNC(=O)c1cccc2nc3c(ccc4ccccc43)nc12,3.02
4,NCCCNC(=O)c1csc(NC(=O)c2csc(NC(=O)CCCN)n2)n1,> 100

# System: MALME-3M melanoma
# Assay: NCI anticancer screen, dose series, 48 h
row,Compound,TGI [µM]
1,CCCCCCCCCCCCC(=O)CCCCC(=O)O,43.6
2,COc1cc2c(c(OC)c1OC)CCNC2C1=C(O)COC1=O (stereo not given),> 100
3,CN(C)CCNC(=O)c1cccc2nc3c(ccc4ccccc43)nc12,3.05
4,NCCCNC(=O)c1csc(NC(=O)c2csc(NC(=O)CCCN)n2)n1,> 100

# System: MCF7 breast
# Assay: NCI anticancer screen, dose series, 48 h
row,Compound,TGI [µM]
1,CN(C)CCNC(=O)c1cccc2nc3c(ccc4ccccc43)nc12,3.27

# System: MDA-MB-231 breast
# Assay: NCI anticancer screen, dose series, 48 h
row,Compound,TGI [µM]
1,CN(C)CCNC(=O)c1cccc2nc3c(ccc4ccccc43)nc12,4.12

# System: MDA-MB-435
# Assay: NCI anticancer screen, dose series, 48 h
row,Compound,TGI [µM]
1,CN(C)CCNC(=O)c1cccc2nc3c(ccc4ccccc43)nc12,13.7

# System: MDA-N
# Assay: NCI anticancer screen, dose series, 48 h
row,Compound,TGI [µM]
1,CN(C)CCNC(=O)c1cccc2nc3c(ccc4ccccc43)nc12,3.21

# System: MOLT-4 leukemia
# Assay: NCI anticancer screen, dose series, 48 h
row,Compound,TGI [µM]
1,CCCCCCCCCCCCC(=O)CCCCC(=O)O,35.7

# From PubChem BioAssay (NCI)
